According to US10729659B2, “Nanogel-mediated drug delivery” (The Cleveland Clinic Foundation, priority 2012, dated 2020):

Assays:
[1] = test system: MCF-7/Adr xenograft tumor; experiment: In vivo anti-tumor efficacy, drug-resistant breast cancer model; parameters: species or system athymic nude mice; details: single intravenous dose 15 mg/kg; vs control nanogel, DAC in solution
Description: A murine drug-resistant breast cancer model (MCF-7/ADR) was used to investigate the anti-tumor efficacy of DAC nanogels. To establish tumors, 1×10^6 MCF-7/ADR cells were suspended in 100 μL of matrigel (BD biosciences San Jose, Calif.) and injected in the mammary fat pad via a 27 G ½ gauge needle. Tumor nodules were allowed to grow to about 300 mm3 prior to receiving DAC nanogels (drug dose 15 mg/kg) or its respective controls (DAC in solution or Control Nanogels) intravenously. Post single treatment, tumor dimensions were measured with a digital caliper at regular time intervals and the tumor volume was calculated using the formula [length×(width)^2]/2. […] Data were expressed as mean±SEM (n=3 to 6). Variances in tumor growth were determined using one-way ANOVA test followed by Tukey test using GraphPad Prism version 4.0 for Windows (p<0.05).
In vivo anti-tumor efficacy of DAC nanogels in athymic nude mice bearing MCF-7/Adr xenograft tumor: To establish tumors, 1×10^6 MCF-7/Adr cells were suspended in 100 μL of matrigel (BD biosciences San Jose, Calif.) and injected in the mammary fat pad via a 27 G ½ gauge needle. […] Tumor dimensions were measured with a digital caliper at regular time interval and the tumor volume was calculated using the formula [length×(width)2]/2. Data were expressed as mean±SEM (n=3 to 6). […]

p21 = experiment: Western blotting of p21; assay type: cell-based, human; details: MCF-7/Adr
Description: Whole cell lysates, were made by lysing 1×10^6 treated or untreated cells, with RIPA buffer (Sigma-Aldrich, St. Louis, Mo.) containing 1× protease inhibitor cocktail (Calbiochem, Gibbstown, N.J.). Lysates were collected by centrifugation at 14,000 rpm for 15 min Protein concentration was determined by a bicinchoninic acid (BCA) assay kit (Pierce, Rockford, Ill.). 20-40 μg proteins of cell lysates were electrophoresed through 13.5% SD Spolyacrylamide gel or 4-15% linear pre-cast polyacrylamide gradient gel (Bio-Rad Laboratories, Hercules, Calif.) and transferred to polyvinylidene difluoride (PVDF) membranes (GE Healthcare Bio-sciences, corp., Piscataway, N.J.). The blots were probed for mouse monoclonal p21 (Cell Signaling Technology, Inc., Danvers, Mass.), mouse monoclonal DNMT1 (Abcam Inc., Cambridge, Mass.), and mouse monoclonal anti-actin (Sigma-Aldrich, St. Louis, Mo.). For detection of bound antibody, PVDF membrane was incubated with horse radish—tagged, goat anti-mouse antibody. After incubation membrane was washed with TBST, and stained with enhanced chemiluminescence (ECL) reagent or ECL plus reagent (GE Healthcare Bio-sciences, corp., Piscataway, N.J.) according to manufacturer protocol.

MCF-7/Adr cells = experiment: Microarray gene expression analysis; assay type: cell-based, human; details: decitabine vs untreated MCF-7/Adr
Description: Microarray analysis was performed using the standard protocol provided by IlluminaCorporation (San Diego, Calif.). […] 20 μL of nuclease free water containing total RNA at the concentration of 100 ng/μL was stored at −80° C. Approximately […] of total RNA was subjected to gene expression array study using Illuminahuman 6v2 chip. The array-hybridization and scanning of array images were performed at the Cleveland Clinic Genomics Core. The microarray scanned image and intensity files were imported into Illumina Bead Studio Analysis software version 3.2.6 (Illumina Inc.). Error models were applied and ratios were built for each treatment array versus its respective vehicle control. For qPCR analysis, RNA isolated from treated and untreated cells were converted into cDNA using Mo-MLV reverse transcriptase (Promega Inc., USA) according to manufacturers' instructions. Taqman expression primers (Applied Biosystems Inc., USA) and ABI PRISM Sequence Detection Instrument 7700 (Applied Biosystems Inc., USA) were used for real-time reverse transcription-PCR (RT-PCR). Fold change in target genes was calculated about the human glyceraldehyde 3-phosphate dehydrogenase (GAPDH).

[2] = rat model; cited from earlier work
[3] = cited from earlier work
[4] = DAC stability in cell culture media; assay type: physicochemical; details: 50 μg/mL, DMEM with 15% FBS, 37° C.
Description: Samples were incubated as 2 mL aliquots at 37° C., collected at various time points and lyophilized. To extract DAC from lyophilized samples 3 mL of methanol was added and kept on orbital rotating shaker at 100 rpm in cold room overnight.
DAC was extracted from lyophilized samples by adding 3 mL of methanol and kept on an orbital rotating shaker at 100 rpm in cold room overnight.

Nc1ncn([C@H]2C[C@H](O)[C@@H](CO)O2)c(=O)n1 [DAC, 5-aza-2′-deoxycytidine]
Tumor growth / tumor size [1]: not different
p21 protein expression (immunoblotting) (p21): significant increase
Fold Change 48 h (MCF-7/Adr cells; gene CDKN1A (p21, Cip1)): 3.6 fold
Fold Change 48 h (MCF-7/Adr cells; gene CST6): 52.8 fold
Fold Change 48 h (MCF-7/Adr cells; gene DPEP3): −87.8 fold
Fold Change 48 h (MCF-7/Adr cells; gene DPPA2): −11.2 fold
Fold Change 48 h (MCF-7/Adr cells; gene GAGE2): 1754.4 fold
Fold Change 48 h (MCF-7/Adr cells; gene GAGE5): 1358.9 fold
Fold Change 48 h (MCF-7/Adr cells; gene GAGE6): 813.8 fold
Fold Change 48 h (MCF-7/Adr cells; gene GAGE7B): 907.8 fold
Fold Change 48 h (MCF-7/Adr cells; gene GAGE8): 411.0 fold
Fold Change 48 h (MCF-7/Adr cells; gene IL23A (p19)): 3.02 fold
Fold Change 48 h (MCF-7/Adr cells; gene MAGEA4): 4.7 fold
Fold Change 48 h (MCF-7/Adr cells; gene MMP9): −215.1 fold
Fold Change 48 h (MCF-7/Adr cells; gene PAGE 4): 11.6 fold
Fold Change 48 h (MCF-7/Adr cells; gene PAGE5): 25.4 fold
Fold Change 48 h (MCF-7/Adr cells; gene PAK3): 2.7 fold
Fold Change 48 h (MCF-7/Adr cells; gene PNMA5): −19.8 fold
Fold Change 48 h (MCF-7/Adr cells; gene PYCARD): 23.6 fold
Fold Change 48 h (MCF-7/Adr cells; gene RASD1): 35.6 fold
Fold Change 48 h (MCF-7/Adr cells; gene SOCSI): 28.2 fold
Fold Change 48 h (MCF-7/Adr cells; gene SOX15): 10.2 fold
Fold Change 48 h (MCF-7/Adr cells; gene STK31): 1663.3 fold
Fold Change 48 h (MCF-7/Adr cells; gene TFF2): −16.8 fold
Fold Change 48 h (MCF-7/Adr cells; gene THY1): 103.1 fold
Fold Change 48 h (MCF-7/Adr cells; gene TMEM101): 33.7 fold
Fold Change 48 h (MCF-7/Adr cells; gene ZFP42): −22.5 fold
Carcinogenicity [2]: has not
In vivo half life [3]: 10 to 30 min
Plasma protein binding ([3]; in vivo): poor plasma protein binding
No detectable levels of DAC at [4]: 8 h
DAC degraded within an hour ([4]; 1 h): 60%
